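Results reflect a 48-hour exposure of cells in 96-well plates to compound at five concentrations. GI50 marks 50% less growth.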 Activity calls are given as the source filed them. No stated cut-off is given here; in the data, active = GI50 up to about 1.1 µM and inactive = higher.
Experiments:
Assay in all cases: NCI-60 cell line screen, 48 h
CCRF-CEM = test system: CCRF-CEM
COLO 205 = test system: COLO 205
EKVX = test system: EKVX
HCC 2998 = test system: HCC 2998
HCT-116 = test system: HCT-116
HT-29 = test system: HT-29
MOLT-4 = test system: MOLT-4
OVCAR-5 = test system: OVCAR-5
OVCAR-8 = test system: OVCAR-8
SF-539 = test system: SF-539
SK-MEL-2 = test system: SK-MEL-2
SK-OV-3 = test system: SK-OV-3
SNB-19 = test system: SNB-19
UACC-62 = test system: UACC-62
A498 = test system: A498
M14 = test system: M14
OVCAR-4 = test system: OVCAR-4
CAKI-1 = test system: CAKI-1

Structure (SMILES)	GI50 (CCRF-CEM)	GI50 (COLO 205)	GI50 (EKVX)	GI50 (HCC 2998)	GI50 (HCT-116)	GI50 (HT-29)	GI50 (MOLT-4)	GI50 (OVCAR-5)	GI50 (OVCAR-8)	GI50 (SF-539)	GI50 (SK-MEL-2)	GI50 (SK-OV-3)	GI50 (SNB-19)	GI50 (UACC-62)	GI50 (A498)	GI50 (M14)	GI50 (OVCAR-4)	GI50 (CAKI-1)
COc1ccc(CNc2nc3ccc(C(F)(F)F)cc3nc2-c2ccccc2)cc1OC	9.91 µM (inactive)	6.41 µM (inactive)	> 100 µM (inactive)	13.9 µM (inactive)	20.7 µM (inactive)	61.5 µM (inactive)	6.71 µM (inactive)	> 100 µM (inactive)	> 100 µM (inactive)	54.3 µM (inactive)	> 100 µM (inactive)	> 100 µM (inactive)	> 100 µM (inactive)	30.1 µM (inactive)				
C=CCSC[C@H](NC(=O)COc1ccccc1)C(=O)NC(C(=O)OCc1ccc([N+](=O)[O-])cc1)=C(C)C	45.5 µM (inactive)	20.6 µM (inactive)	43.7 µM (inactive)	> 100 µM (inactive)	> 100 µM (inactive)	39.1 µM (inactive)	19.8 µM (inactive)		63 µM (inactive)		> 100 µM (inactive)	> 100 µM (inactive)		72.6 µM (inactive)	12.2 µM (inactive)	47.9 µM (inactive)	62.2 µM (inactive)	
CCCCCCCCCCCCCCCCCC(CCCCCCCCCCCCCCCCC)OP(=O)(O)O	> 100 µM (inactive)	> 100 µM (inactive)	> 100 µM (inactive)	> 100 µM (inactive)	> 100 µM (inactive)	> 100 µM (inactive)	> 100 µM (inactive)	> 100 µM (inactive)	> 100 µM (inactive)		> 100 µM (inactive)	> 100 µM (inactive)	> 100 µM (inactive)	> 100 µM (inactive)	> 100 µM (inactive)	> 100 µM (inactive)	> 100 µM (inactive)	> 100 µM (inactive)
CC(N)Cc1cccc(C(F)(F)F)c1 (stereo unspecified)	> 100 µM (inactive)	> 100 µM (inactive)	> 100 µM (inactive)	> 100 µM (inactive)	> 100 µM (inactive)	> 100 µM (inactive)		> 100 µM (inactive)	> 100 µM (inactive)	> 100 µM (inactive)	> 100 µM (inactive)	> 100 µM (inactive)	> 100 µM (inactive)	> 100 µM (inactive)	> 100 µM (inactive)	> 100 µM (inactive)	> 100 µM (inactive)	> 100 µM (inactive)
C[N+](C)(C)CC1CCCCC1=O (stereo unspecified)	4.56 µM (inactive)	22.6 µM (inactive)	19.9 µM (inactive)		17.7 µM (inactive)	19.6 µM (inactive)	12.4 µM (inactive)		19.2 µM (inactive)	> 100 µM (inactive)		> 100 µM (inactive)	> 100 µM (inactive)	18.9 µM (inactive)		16.6 µM (inactive)		
COc1ccc2c(c1)Cc1c-2[nH]c2cc3c(cc2c1=O)OCO3	4.33 µM (inactive)	12 µM (inactive)	23.8 µM (inactive)	11.6 µM (inactive)	6.56 µM (inactive)	6.44 µM (inactive)	8.81 µM (inactive)		19.1 µM (inactive)	14.3 µM (inactive)	6.14 µM (inactive)	22.3 µM (inactive)	23 µM (inactive)	10.4 µM (inactive)		14.2 µM (inactive)	25.4 µM (inactive)	32.1 µM (inactive)
[O-]c1c2c(nn1-c1ccccc1)c1ccccc1c[n+]2Cc1ccccc1	> 100 µM (inactive)	> 100 µM (inactive)	> 100 µM (inactive)	> 100 µM (inactive)	> 100 µM (inactive)	> 100 µM (inactive)	> 100 µM (inactive)	> 100 µM (inactive)	> 100 µM (inactive)	> 100 µM (inactive)	> 100 µM (inactive)	> 100 µM (inactive)	> 100 µM (inactive)	> 100 µM (inactive)		> 100 µM (inactive)	78 µM (inactive)	
c1ccc(OC2=NC3=S(S2)SC(Oc2ccccc2)=N3)cc1	9.59 µM (inactive)	17.9 µM (inactive)	21.5 µM (inactive)	19.5 µM (inactive)	17.5 µM (inactive)	21.4 µM (inactive)	9.98 µM (inactive)	20.5 µM (inactive)	22.2 µM (inactive)	22.3 µM (inactive)	13.6 µM (inactive)	28.2 µM (inactive)	20.4 µM (inactive)	18.9 µM (inactive)	25.1 µM (inactive)	18.4 µM (inactive)		17.7 µM (inactive)
C[N+]1(CCNP(=S)(NCC[N+]2(C)Cc3c(ccc4c3OCO4)C3C2c2cc4c(cc2C[C@@H]3O)OCO4)NCC[N+]2(C)Cc3c(ccc4c3OCO4)C3C2c2cc4c(cc2C[C@@H]3O)OCO4)Cc2c(ccc3c2OCO3)C2C1c1cc3c(cc1C[C@H]2O)OCO3 (stereo partly specified)	1.27 µM (inactive)	< 0.00191 µM (active)	< 0.00191 µM (active)	< 0.00191 µM (active)	< 0.00191 µM (active)	< 0.00191 µM (active)		< 0.00191 µM (active)	< 0.00191 µM (active)	< 0.00191 µM (active)	< 0.00191 µM (active)	< 0.00191 µM (active)	< 0.00191 µM (active)	< 0.00191 µM (active)	< 0.00191 µM (active)	< 0.00191 µM (active)	< 0.00191 µM (active)	13.2 µM (inactive)
COC(=O)c1cc2ccccc2c2nc3ccccc3c(Cl)c12	> 100 µM (inactive)	> 100 µM (inactive)	> 100 µM (inactive)	> 100 µM (inactive)	87.1 µM (inactive)	> 100 µM (inactive)	> 100 µM (inactive)		> 100 µM (inactive)	16.6 µM (inactive)	> 100 µM (inactive)		37.4 µM (inactive)	> 100 µM (inactive)	> 100 µM (inactive)	> 100 µM (inactive)	> 100 µM (inactive)	> 100 µM (inactive)
Cc1ccc(NC(=O)CCc2cc(C(C)(C)C)nc(S)n2)cc1C	> 100 µM (inactive)	> 100 µM (inactive)	> 100 µM (inactive)	> 100 µM (inactive)	> 100 µM (inactive)	> 100 µM (inactive)	> 100 µM (inactive)	> 100 µM (inactive)	> 100 µM (inactive)	> 100 µM (inactive)	> 100 µM (inactive)	> 100 µM (inactive)	> 100 µM (inactive)	> 100 µM (inactive)	> 100 µM (inactive)	> 100 µM (inactive)		> 100 µM (inactive)
CC(=O)Nc1ccc(C(=O)NN2C(=O)C(Cl)C2c2ccccc2)cc1 (stereo unspecified)	> 100 µM (inactive)	> 100 µM (inactive)	> 100 µM (inactive)		> 100 µM (inactive)	> 100 µM (inactive)	> 100 µM (inactive)	> 100 µM (inactive)	> 100 µM (inactive)	> 100 µM (inactive)	> 100 µM (inactive)	> 100 µM (inactive)	> 100 µM (inactive)	> 100 µM (inactive)	> 100 µM (inactive)	> 100 µM (inactive)	> 100 µM (inactive)	> 100 µM (inactive)
CN1CCN(c2nc(N)c(Br)c(Cl)n2)CC1	> 100 µM (inactive)	> 100 µM (inactive)	> 100 µM (inactive)	> 100 µM (inactive)			> 100 µM (inactive)	> 100 µM (inactive)	> 100 µM (inactive)		> 100 µM (inactive)	> 100 µM (inactive)	> 100 µM (inactive)	> 100 µM (inactive)		> 100 µM (inactive)	> 100 µM (inactive)	> 100 µM (inactive)
C[C@@]12[Se]c3ccccc3[C@]1(C)[Se]c1ccccc12	4.39 µM (inactive)	3.73 µM (inactive)	> 100 µM (inactive)	6.47 µM (inactive)	> 100 µM (inactive)	3.79 µM (inactive)		> 100 µM (inactive)	> 100 µM (inactive)		3.85 µM (inactive)			2.23 µM (inactive)		> 100 µM (inactive)	68.2 µM (inactive)	> 100 µM (inactive)
Nc1ccn(CCO)c(=O)n1	> 100 µM (inactive)	> 100 µM (inactive)	> 100 µM (inactive)	> 100 µM (inactive)	> 100 µM (inactive)	> 100 µM (inactive)		> 100 µM (inactive)	> 100 µM (inactive)	> 100 µM (inactive)	> 100 µM (inactive)	> 100 µM (inactive)		> 100 µM (inactive)	> 100 µM (inactive)	> 100 µM (inactive)	> 100 µM (inactive)	> 100 µM (inactive)
CC1=CC[C@@H](C(C)(C)O)C[C@@H]1O	> 5000 µM (inactive)	> 5000 µM (inactive)	> 5000 µM (inactive)	> 5000 µM (inactive)	> 5000 µM (inactive)	> 5000 µM (inactive)	> 5000 µM (inactive)	> 5000 µM (inactive)	> 5000 µM (inactive)	> 5000 µM (inactive)	> 5000 µM (inactive)	> 5000 µM (inactive)	> 5000 µM (inactive)	> 5000 µM (inactive)	> 5000 µM (inactive)	> 5000 µM (inactive)	> 5000 µM (inactive)	
O=C1C(Cl)C(c2cccc([N+](=O)[O-])c2)N1n1cnc2ccccc2c1=O (stereo unspecified)	> 10 µM (inactive)	> 100 µM (inactive)	> 100 µM (inactive)	> 100 µM (inactive)	37.8 µM (inactive)	> 100 µM (inactive)	35.1 µM (inactive)	58.5 µM (inactive)	> 100 µM (inactive)		> 100 µM (inactive)	> 100 µM (inactive)	> 100 µM (inactive)	> 100 µM (inactive)		> 100 µM (inactive)	54.6 µM (inactive)	91.2 µM (inactive)

— ChEMBL document CHEMBL1201862, “PubChem BioAssay data set” (2004)
